Laboratory results reported in PMC8999917, “Structure–Activity Relationship of Synthetic Ginkgolic Acid Analogs for Treating Type 2 Diabetes by PTPN9 Inhibition” (International Journal of Molecular Sciences, 2022).

Key:
Format in all cases: cell-based, mouse
[1] = tested on: Akt phosphorylation; assay: Western blot of Akt phosphorylation in mature 3T3-L1 adipocytes; details: compound only group and insulin co-treatment group
Protocol: (§1) To further elucidate the pathway involved in 1e-mediated glucose uptake promotion, AMPK and Akt phosphorylation in mature 3T3-L1 adipocytes was evaluated via Western blotting following treatment with 5 or 10 µM 1e for 1 h.
(§2) The expression levels of glucose uptake-related proteins were determined via Western blotting, as previously described. In brief, differentiated 3T3-L1 cells were plated in six-well plates at a 1.5 × 10^4 cells/well density in a final volume of 2 mL. Then, the cells were incubated in the presence of DMSO or different concentrations of the compounds and harvested using a RIPA buffer (Sigma-Aldrich, Saint Louis, MS, USA) and a protease inhibitor cocktail (Roche Korea, Seoul, Korea) after 1 h of incubation. Equivalent amounts of proteins (20 µg) from each lysate were separated by 10% SDS-PAGE and transferred onto PVDF membranes (Merk KgaA, Darmstadt, Germany), where they were maintained for 120 min at 200 mA. The membranes were blocked with 5% skim milk for 1 h at room temperature in 0.1% TBST and then probed with primary antibodies at different concentrations in 0.1% BSA overnight at 4 °C according to the manufacturer’s instructions. Secondary antibodies were added to the membranes at a concentration of 1:2000 for 1 h at room temperature, and immunoreactive bands were detected via ECL (GE Healthcare Korea Co., Ltd., Incheon, Korea). […]

[2] = tested on: 3T3-L1 adipocytes; assay: 2-NBDG glucose uptake assay in differentiated 3T3-L1 adipocytes; details: 10 µM, plate reader fluorescence
Protocol: (§3) PTPN9 inhibitors have been reported to increase glucose uptake. To clarify the antidiabetic effects of GA analogs, a 2-NBDG (a fluorescent glucose probe) uptake assay was performed using differentiated 3T3-L1 adipocytes and C2C12 myotubes. After 16 h of starvation, differentiated 3T3-L1 adipocytes were incubated with compounds 1e and 1f for another 1 h. The cells were subsequently incubated with 2-NBDG for 30 min and washed with PBS before quantifying the fluorescence of 2-NBDG taken up by the cells. The 2-NBDG uptake-increasing effects of GA and its analogs in 3T3-L1 cells were monitored via confocal microscopy. The blank group was set in the absence of 2-NBDG but was treated with DMSO to determine the basal fluorescence levels in 3T3-L1 adipocytes (Figure 4A, Basal); in the negative control group, 3T3-L1 adipocytes were treated with 2-NBDG and DMSO for the evaluation of basal glucose uptake levels (Figure 4A, DMSO). […] Furthermore, to quantify 2-NBDG uptake, fluorescence intensity (Ex/Em = 485/535 nm) was measured using a plate reader. […] After incubation, the cells were washed with pre-cold PBS, and the fluorescence intensity was measured using a fluorescence microplate reader (Victor^TM X4, PerkinElmer, Waltham, MA, USA) (Ex/Em = 485/535 nm). […]

[3] = tested on: C2C12 myotubes; assay: 2-NBDG glucose uptake assay in C2C12 myotubes; details: 10 µM, plate reader fluorescence
Protocol: as §3

[4] = tested on: AMPK phosphorylation; assay: Western blot of AMPK phosphorylation in mature 3T3-L1 adipocytes; details: 5 or 10 µM for 1 h
Protocol: as §1, §2

[5] = tested on: AMPK phosphorylation; assay: Western blot of AMPK phosphorylation in C2C12 myotubes
Protocol: To further investigate the mechanism of action of 1e, we evaluated its effects on AMPK and AKT phosphorylation in C2C12 myotubes. […] In line with the results obtained in 3T3-L1 cells, in the absence of insulin, 1e had no effects on basal p-Akt expression levels (Figure 6A).
as §2, with “The membranes were blocked with 5% skim milk for 1 h at room temperature in 0.1% TBST and then probed with primary antibodies at different concentrations in 0.1% BSA overnight at 4 °C according to the manufacturer’s instructions.” left out

## CCCCCCCCCCCCCOc1cccc(O)c1C(=O)O [Compound 1e]
[1]
  Akt phosphorylation levels: no significant change
[2]
  2-NBDG uptake increase compared to the DMSO control: approximately 2.0 fold
[3]
  2-NBDG uptake increase compared to the DMSO control: ~1.4 fold
[4]
  AMPK phosphorylation: significantly induced AMPK phosphorylation in a concentration-dependent manner
[5]
  AMPK phosphorylation: significantly upregulated AMPK phosphorylation in a concentration-dependent manner
